Reference: patent publication US20210369669A1, “AUTOPHAGY ACTIVATORS AND INHIBITORS OF FERROPTOSIS FOR PREVENTING ACUTE RENAL FAILURE AND NEUROTOXCITY INDUCED BY CERTAIN ANTIBIOTICS” (SystaMedic Inc., priority 2018, published 2021)
Like-named read-outs stand apart in the source and are kept apart here.

Experiments:
[1] = tested on: cisplatin-induced renal damage; details: rats; cited from earlier work
mouse N2a neuronal cells = details: cited from earlier work
[2] = tested on: central and peripheral nerve tissues; details: colistin 15 mg/kg/day for 7 days in mice; cited from earlier work
[3] = tested on: rat model of acute renal injury (colistin-induced); test: Colistin-induced acute renal injury in rats: serum creatinine and urea; format: in vivo
Protocol: Rats were injected I.P. on the left side of the animals with a 30 mg/kg dose of colistin once a day for eight consecutive days.

[4] = monkeys; estimated from oral studies; from U.S. Pat. No. 5,629,337; cited from earlier work
[5] = dogs; estimated from oral studies; from U.S. Pat. No. 5,629,337; cited from earlier work
[6] = tested on: mouse model of renal injury (colistin-induced); test: Colistin-induced acute renal injury, mouse model; format: in vivo; details: very low doses of zileuton
[7] = rat serum, day 1 prior to dosing, colistin 30 mg/kg I.P. once a day, zileuton 3 mg/kg I.P., edaravone 15 mg/kg I.P. or atorvastatin 25 mg/kg P.O.
[8] = rat serum, day 4, colistin 30 mg/kg I.P. once a day, zileuton 3 mg/kg I.P., edaravone 15 mg/kg I.P. or atorvastatin 25 mg/kg P.O.
[9] = rat serum, day 8, colistin 30 mg/kg I.P. once a day, zileuton 3 mg/kg I.P., edaravone 15 mg/kg I.P. or atorvastatin 25 mg/kg P.O.

CC1=NN(c2ccccc2)C(=O)C1 [edaravone, 5-methyl-2-phenyl-4H-pyrazol-3-one]
Protection against cisplatin-induced renal damage [1]: protect rats against cisplatin-induced renal damage

colistin
Apoptosis of neuronal cells (mouse N2a neuronal cells; 200 μM colistin for 24 h): become apoptotic
Mitochondrial dysfunction in nerve tissues [2]: induced mitochondrial dysfunction in central and peripheral nerve tissues

CC(C)c1c(C(=O)Nc2ccccc2)c(-c2ccccc2)c(-c2ccc(F)cc2)n1CC[C@@H](O)C[C@@H](O)CC(=O)O [atorvastatin]
Effect on colistin-induced elevation of creatinine and urea levels ([3]; colistin 3 mg/kg/diem over eight days, rats): blocks the elevation of creatinine and urea levels

CC(c1cc2ccccc2s1)N(O)C(N)=O (racemic) [zileuton, (±) 1-[1-(1-benzothiophen-2-yl)ethyl]-1-hydroxyurea]
Inhibition of colistin-induced acute renal injury ([3]; very low doses of zileuton, rat model): potent inhibition
Effect on colistin-induced elevation of creatinine and urea levels ([3]; zileuton I.P. around 3 mg/kg, colistin 30 mg kg, rat): blocks the elevation of creatinine and urea levels
elimination half-life [4]: 0.333 h
elimination half-life [5]: 7 h
Protection against cisplatin-induced renal damage [1]: protect rats against cisplatin-induced renal damage
Inhibition of colistin-induced acute renal injury [6]: potent inhibition

CCN(CC)CCCC(C)Nc1ccnc2cc(Cl)ccc12 (centres unmarked) [chloroquine]
Effect on colistin-induced apoptosis (mouse N2a neuronal cells; inhibition of autophagy by chloroquine): enhances colistin-induced apoptosis

Colistin Sulfate
Mean Creatinine Day 1 [3, 7]: 0.44 mg/dL
Mean Urea Day 1 [3, 7]: 37 mg/dL
Mean Creatinine Day 4 [3, 8]: 0.71 mg/dL
Mean Urea Day 4 [3, 8]: 69 mg/dL
Mean Creatinine Day 8 [3, 9]: 0.96 mg/dL
Mean Urea Day 8 [3, 9]: 85 mg/dL
